Reference: ChEMBL document CHEMBL1131992, “Bifunctional 2-naphthyl propargylic sulfones exhibiting high DNA intercalating and alkylating activity” (Bioorg Med Chem Lett, 1999)

How the values were obtained:
Nucleic Acid = assay: DNA cleavage activity as 70% FormI DNA cleavage; type: nucleic-acid assay
P388 = assay: Cytotoxicity against P388 cell line(mouse T cell leukemia); type: functional, cell-based

C70 (Nucleic Acid) [µM] | Structure (SMILES) | IC50 (P388) [µM]
1000 | O=S(=O)(CC#CCCCC#CCO)c1ccccc1 | 
10 | O=S(=O)(CC#CCCCC#CCO)c1ccc2ccccc2c1 | 10
 | O=C(OCC#CCCCC#CCS(=O)(=O)c1ccc2ccccc2c1)c1cccc2cc3ccccc3cc12 | 42
5 | CCCC(O)C#CCS(=O)(=O)c1ccc2ccccc2c1 (stereo not drawn) | 
 | O=C(OCC#CCCCC#CCS(=O)(=O)c1ccc2ccccc2c1)c1ccc2cc3ccccc3cc2c1 | 17
800 | CCCC(O)C#CCS(=O)(=O)c1ccccc1 (stereo not drawn) | 
 | O=C(OCC#CCCCC#CCS(=O)(=O)c1ccc2ccccc2c1)c1ccc2c(c1)C(=O)c1ccccc1C2=O | 41
